In brackets after ≈: the same amount, converted by molar mass. Where only a bound is given, the exact number is not on record here.

As a reminder, the inhibition in vivo is the change of the read-out against control, counted positive when it falls. As usually defined, the IC50 is the point on the concentration scale where inhibition reaches its midpoint. Higher therefore signals lower potency. For orientation: solubility means how much of the substance goes into solution per volume. Low readings indicate a poorly soluble substance, high ones a readily soluble substance. A word on the Papp A→B: it is the apparent permeability from the apical to the basolateral side of a cell layer.

Series [1] concerns Lewis lung carcinoma cell line. As to the kind of experiment: Antimetastatic activity against LLC cells allografted in C57BL6 mouse assessed as inhibition of metastatic nodules in lung at 60 mg/kg, ig after 30 days by H and E staining based analysis relative to control. Format: functional. To be noted: po, 720 h.
Series [2] has as its target Tryptophan 2,3-dioxygenase (Homo sapiens, UniProt P48775). As to the kind of experiment: Inhibition of N-terminal His-tagged human TDO expressed in Escherichia coli expression system.
Series [3] in a line: Aqueous solubility of compound at 1 mg after 30 hrs by HPLC analysis. The class given is physicochemical.
In series [4] the test system is Lewis lung carcinoma cell line. The series is described as follows: Antimetastatic activity against LLC cells allografted in C57BL6 mouse assessed as number of metastatic nodules in lung at 60 mg/kg, ig after 30 days by H and E staining based analysis. Format: functional.
Series [5] concerns the target T1, Indoleamine 2,3-dioxygenase 2 (Homo sapiens, UniProt Q6ZQW0).
T1 sequence (Q6ZQW0 whole entry): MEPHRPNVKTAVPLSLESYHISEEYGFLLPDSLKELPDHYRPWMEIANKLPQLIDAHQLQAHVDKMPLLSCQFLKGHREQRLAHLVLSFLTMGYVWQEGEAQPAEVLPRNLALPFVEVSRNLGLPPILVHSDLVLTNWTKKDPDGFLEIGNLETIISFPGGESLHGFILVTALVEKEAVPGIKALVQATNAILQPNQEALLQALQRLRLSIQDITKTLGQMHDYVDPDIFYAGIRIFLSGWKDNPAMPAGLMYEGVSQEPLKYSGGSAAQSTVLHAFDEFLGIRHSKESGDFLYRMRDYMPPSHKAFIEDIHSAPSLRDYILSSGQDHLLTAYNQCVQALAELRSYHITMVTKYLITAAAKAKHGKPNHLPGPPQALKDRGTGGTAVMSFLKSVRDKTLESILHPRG
As to the kind of experiment: Inhibition of N-terminal His-tagged human IDO2 expressed in Escherichia coli expression system.

A short description of series [6]: Apparent permeability across apical to basolateral side in human Caco2 cells upto 90 mins by LC-MS/MS analysis. Conditions: Caco-2. The class given is ADME, cell-based.
Series [7] is described as follows: Toxicity in C57BL6 mouse allografted with Lewis cells assessed as increase in body weight at 60 mg/kg, ig measured every 3 days for 30 days. Format: organism-based. Conditions: in vivo, po, 720 h.
The target of series [8] is Indoleamine 2,3-dioxygenase 1 (Homo sapiens, UniProt P14902). As to the kind of experiment: Inhibition of IDO1 in human HeLa cells using L-tryptophan as substrate incubated for 48 hrs. Format: cell-based.
Chain of Indoleamine 2,3-dioxygenase 1 (P14902 whole entry): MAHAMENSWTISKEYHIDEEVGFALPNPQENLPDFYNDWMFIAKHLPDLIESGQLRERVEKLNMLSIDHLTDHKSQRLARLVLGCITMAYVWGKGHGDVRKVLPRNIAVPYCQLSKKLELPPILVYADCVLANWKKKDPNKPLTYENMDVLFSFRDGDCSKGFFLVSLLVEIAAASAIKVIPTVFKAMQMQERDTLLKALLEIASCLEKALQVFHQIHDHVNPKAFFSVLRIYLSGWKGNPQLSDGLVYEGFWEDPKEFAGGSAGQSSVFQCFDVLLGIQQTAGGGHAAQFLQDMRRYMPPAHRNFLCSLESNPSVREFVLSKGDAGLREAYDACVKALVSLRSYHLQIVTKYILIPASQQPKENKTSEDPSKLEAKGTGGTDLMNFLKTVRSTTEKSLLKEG

Chain of Tryptophan 2,3-dioxygenase (P48775 whole entry): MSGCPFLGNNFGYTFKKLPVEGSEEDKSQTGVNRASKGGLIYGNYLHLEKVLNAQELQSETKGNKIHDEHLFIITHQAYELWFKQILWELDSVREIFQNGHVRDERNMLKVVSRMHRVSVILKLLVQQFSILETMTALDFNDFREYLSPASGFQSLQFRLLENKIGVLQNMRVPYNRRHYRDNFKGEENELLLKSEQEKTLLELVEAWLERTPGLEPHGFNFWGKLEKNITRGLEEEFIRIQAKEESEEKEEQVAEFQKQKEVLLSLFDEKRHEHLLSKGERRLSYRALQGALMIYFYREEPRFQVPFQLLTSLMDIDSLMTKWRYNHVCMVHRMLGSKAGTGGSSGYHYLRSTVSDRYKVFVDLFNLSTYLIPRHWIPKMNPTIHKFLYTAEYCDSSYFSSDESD

For `NS(=O)(=O)NCCNc1nonc1C(=NO)Nc1ccc(F)c(Br)c1` [EPACADOSTAT], the inhibition in vivo at 60 mg/kg in series [1] came out at 77%. Also, the figures for the IC50 in series [2] and in series [5] were above 10000 nM and 710 nM, respectively. Also, in series [3], the solubility at 30 h stood at 130 µg/mL (≈ 297 µM). Also, the values for the Activity in series [4] and in series [7] were 21 and “Toxic”, respectively. Also, the Papp A→B at 1.5 h in series [6] stood at 3.1 ×10⁻⁶ cm/s.

In series [8], `CCOP(=O)(NCCNc1nonc1/C(=N/O)Nc1ccc(F)c(Br)c1)c1ccccc1` (stereo not given) registered an IC50 of 132 nM.

In series [8], `CCOP(=O)(Cc1ccccc1)NCCNc1nonc1/C(=N/O)Nc1ccc(F)c(Br)c1` (stereo not given) yielded an IC50 of 119 nM.

`CCOP(=O)(Cc1cccc2ccccc12)NCCNc1nonc1/C(=N/O)Nc1ccc(F)c(Br)c1` (stereo not given) gave an IC50 in series [8] of 126 nM.

The values above are taken from ChEMBL document CHEMBL4406833 (Eur J Med Chem, 2019).
